How the values were obtained:
[1] = test system: Glomerella lagenarium (Colletotrichum lagenarium); assay: Glomerella lagenarium (Colletotrichum lagenarium) / liquid culture (anthracnose); format: cell-based; details: Colletotrichum orbiculare, 72 h, 200 ppm in the formulation, inhibition of growth measured photometrically 3 to 4 days after application, compared to untreated control, read-out: disease control
Protocol: (§1) Glomerella lagenarium (Colletotrichum lagenarium)/Liquid Culture (Anthracnose) Conidia of the fungus from cryogenic storage are directly mixed into nutrient broth (PDB potato dextrose broth). After placing a (DMSO) solution of test compound into a microtiter plate (96-well format), the nutrient broth containing the fungal spores is added. The test plates are incubated at 24° C. and the inhibition of growth is measured photometrically 3 to 4 days after application.

[2] = test system: Monographella nivalis (Microdochium nivale); assay: Monographella nivalis (Microdochium nivale) / liquid culture (foot rot cereals); format: cell-based; details: 96 h, 200 ppm in the formulation, inhibition of growth determined photometrically 4-5 days after application, compared to untreated control, read-out: disease control
Protocol: as §1, with “Monographella nivalis (Microdochium nivale)/Liquid” for “Glomerella lagenarium (Colletotrichum lagenarium)/Liquid”, “(Foot Rot Cereals)” for “(Anthracnose)”, “determined” for “measured”, “4-5” for “3 to 4”

[3] = test system: Mycosphaerella arachidis (Cercospora arachidicola); assay: Mycosphaerella arachidis (Cercospora arachidicola) / liquid culture (early leaf spot); format: cell-based; details: 96 h, 200 ppm in the formulation, inhibition of growth determined photometrically 4-5 days after application, compared to untreated control, read-out: disease control
Protocol: as §1, with “Mycosphaerella arachidis (Cercospora arachidicola)/Liquid” for “Glomerella lagenarium (Colletotrichum lagenarium)/Liquid”, “(Early Leaf Spot)” for “(Anthracnose)”, “determined” for “measured”, “4-5” for “3 to 4”

[4] = test system: Mycosphaerella graminicola (Septoria tritici); assay: Mycosphaerella graminicola (Septoria tritici) / liquid culture (Septoria blotch); format: cell-based; details: Zymoseptoria tritici, 96 h, 200 ppm in the formulation, inhibition of growth determined photometrically 4 to 5 days after application, compared to untreated control, read-out: disease control
Protocol: (§2) Mycosphaerella graminicola (Septoria tritici)/Liquid Culture (Septoria Blotch) Conidia of the fungus from cryogenic storage are directly mixed into nutrient broth (PDB potato dextrose broth). After placing a (DMSO) solution of test compound into a microtiter plate (96-well format), the nutrient broth containing the fungal spores is added. The test plates are incubated at 24° C. and the inhibition of growth is determined photometrically 4 to 5 days after application.

[5] = test system: Phaeosphaeria nodorum (Septoria nodorum); assay: Phaeosphaeria nodorum (Septoria nodorum) / wheat / leaf disc preventative (glume blotch); format: in vivo; details: 200 ppm in the formulation; wheat leaf segments cv. Kanzler; compared to untreated control; 5-7 days after application
Protocol: Phaeosphaeria nodorum (Septoria nodorum)/Wheat/Leaf Disc Preventative (Glume Blotch) Wheat leaf segments cv. Kanzler are placed on agar in a multiwell plate (24-well format) and sprayed with the formulated test compound diluted in water. The leaf disks are inoculated with a spore suspension of the fungus 2 days after application. The inoculated test leaf disks are incubated at 20° C. and 75% rh under a light regime of 12 h light/12 h darkness in a climate cabinet and the activity of a compound is assessed as percent disease control compared to untreated when an appropriate level of disease damage appears in untreated check leaf disks (5-7 days after application).

[6] = test system: Blumeria graminis f. Sp. tritici (Erysiphe graminis f. Sp. tritici); assay: Blumeria graminis f. sp. tritici / wheat / leaf disc preventative (powdery mildew on wheat); format: in vivo; details: 200 ppm in the formulation; wheat leaf segments cv. Kanzler; compared to untreated control; 6-8 days after application
Source text: Blumeria graminis f. Sp. tritici (Erysiphe graminis f. Sp. tritici)/Wheat/Leaf Disc Preventative (Powdery Mildew on Wheat) Wheat leaf segments cv. Kanzler are placed on agar in a multiwell plate (24-well format) and sprayed with the test compound formulated with DMSO and Tween20 and diluted in water. The leaf disks are inoculated by shaking powdery mildew infected plants above the test plates 1 day after application.

[7] = test system: Botryotinia fuckeliana (Botrytis cinerea); assay: Botryotinia fuckeliana (Botrytis cinerea) / liquid culture (gray mould); format: cell-based; details: 72 h, 200 ppm in the formulation, inhibition of growth determined photometrically 3-4 days after application, compared to untreated control, read-out: disease control
Protocol: as §2, with “Botryotinia fuckeliana (Botrytis cinerea)/Liquid” for “Mycosphaerella graminicola (Septoria tritici)/Liquid”, “(Gray Mould)” for “(Septoria Blotch)”, “(Vogels” for “(PDB potato dextrose”, “3-4” for “4 to 5”

Row | Structure (SMILES) | inhibition of growth at 200 ppm [1] | inhibition of growth at 200 ppm [2] | inhibition of growth at 200 ppm [3] | inhibition of growth at 200 ppm [4] | disease control [5] | disease control [6] | inhibition of growth at 200 ppm [7]
1 | COc1ccnc(C(=O)N[C@@H](C)C(=O)OC2CCC2(c2ccccc2C)c2ccccc2C)c1O (stereo partly drawn) [I.o.02, [2,2-bis(o-tolyl)cyclobutyl] (2S)-2-[(3-hydroxy-4-methoxy-pyridine-2-carbonyl)amino]propanoate] | ≥ 80% | ≥ 80% | ≥ 80% | ≥ 80% | at least 80% |  | 
2 | COc1cccc(C2(c3cccc(OC)c3)CCC2OC(=O)[C@H](C)NC(=O)c2nccc(OC)c2O)c1 (some centres unmarked) [I.t.02] | ≥ 80% | ≥ 80% | ≥ 80% | ≥ 80% |  | at least 80% | ≥ 80%
